Data published in ChEMBL document CHEMBL3885881, “DrugMatrix”.

Species on record: Rattus norvegicus
Test: DrugMatrix - Regimen: Daily Repeat
Format: toxicity, organism-based, Sprague-Dawley
Parameters: regimen Daily Repeat, gender Male, age 6-8 weeks
Details: in vivo, iv, vehicle 100 % SALINE
[1] = 0 mg/kg, 120 h, tissue Plasma, dose level Control, time 5 day
[2] = 2 mg/kg, 72 h, tissue Blood, dose level High, time 3 day
[3] = 2 mg/kg, 72 h, tissue Plasma, dose level High, time 3 day
[4] = 2 mg/kg, 120 h, tissue Blood, dose level High, time 5 day
[5] = 2 mg/kg, 120 h, tissue Plasma, dose level High, time 5 day

Sequence: CISPLATIN
- CHLORIDE [1]: 100.33 MEQ/L
- CHOLESTEROL [1]: 69.33 mg/dL
- CREATININE [1]: 0.22 mg/dL
- GLUCOSE [1]: 155.17 mg/dL
- PHOSPHORUS [1]: 11.2 mg/dL
- POTASSIUM [1]: 5.5 MEQ/L
- TOTAL BILIRUBIN [1]: 0.18 mg/dL
- URIC ACID [1]: 0.88 mg/dL
- ABSOLUTE BASOPHIL [2]: 0 CELLS/uL
- ABSOLUTE EOSINOPHIL [2]: 0 CELLS/uL
- ABSOLUTE LYMPHOCYTE [2]: 6398.67 CELLS/uL
- ABSOLUTE MONOCYTE [2]: 72 CELLS/uL
- BASOPHIL [2]: 0%
- EOSINOPHIL [2]: 0%
- ERYTHROCYTE COUNT [2]: 5.34 x10E6/uL
- HEMATOCRIT [2]: 33.2%
- HEMOGLOBIN [2]: 13.07 G/DL
- LEUKOCYTE COUNT [2]: 6.77 x10E3/uL
- LYMPHOCYTE [2]: 94.67%
- MONOCYTE [2]: 1%
- NEUTROPHIL [2]: 4.33%
- NUCLEATED RED BLOOD CELLS [2]: 0 /100WBC
- PLATELET COUNT [2]: 1193.33 x10E3/uL
- ALANINE AMINOTRANSFERASE [3]: 59.33 u/L
- ALKALINE PHOSPHATASE [3]: 321.33 u/L
- ASPARTATE AMINOTRANSFERASE [3]: 83.33 u/L
- BLOOD UREA NITROGEN [3]: 45.67 mg/dL
- CARBON DIOXIDE [3]: 28 mmol/L
- CHLORIDE [3]: 98.67 MEQ/L
- CHOLESTEROL [3]: 63.33 mg/dL
- CREATININE [3]: 0.81 mg/dL
- GLUCOSE [3]: 165.67 mg/dL
- LACTATE DEHYDROGENASE [3]: 157 u/L
- LIPASE [3]: 8.33 u/L
- PHOSPHORUS [3]: 9.77 mg/dL
- POTASSIUM [3]: 5.3 MEQ/L
- TOTAL BILIRUBIN [3]: 0.3 mg/dL
- URIC ACID [3]: 0.97 mg/dL
- ABSOLUTE BASOPHIL [4]: 0 CELLS/uL
- ABSOLUTE EOSINOPHIL [4]: 0 CELLS/uL
- ABSOLUTE LYMPHOCYTE [4]: 6841 CELLS/uL
- ABSOLUTE MONOCYTE [4]: 28.67 CELLS/uL
- BASOPHIL [4]: 0%
- EOSINOPHIL [4]: 0%
- ERYTHROCYTE COUNT [4]: 5.89 x10E6/uL
- HEMOGLOBIN [4]: 14.03 G/DL
- LEUKOCYTE COUNT [4]: 7.07 x10E3/uL
- LYMPHOCYTE [4]: 97%
- MEAN CORPUSCULAR HEMOGLOBIN [4]: 23.87 pg
- MEAN CORPUSCULAR HEMOGLOBIN CONCENTRATION [4]: 39.17 G/DL
- MONOCYTE [4]: 0.33%
- NEUTROPHIL [4]: 2.67%
- NUCLEATED RED BLOOD CELLS [4]: 0 /100WBC
- PLATELET COUNT [4]: 1329.67 x10E3/uL
- ALANINE AMINOTRANSFERASE [5]: 52 u/L
- ALKALINE PHOSPHATASE [5]: 249 u/L
- ASPARTATE AMINOTRANSFERASE [5]: 79.33 u/L
- BLOOD UREA NITROGEN [5]: 37.67 mg/dL
- CHLORIDE [5]: 100 MEQ/L
- CHOLESTEROL [5]: 80 mg/dL
- CREATININE [5]: 0.65 mg/dL
- GLUCOSE [5]: 137.33 mg/dL
- LACTATE DEHYDROGENASE [5]: 134.33 u/L
- LIPASE [5]: 11.67 u/L
- PHOSPHORUS [5]: 9.43 mg/dL
- POTASSIUM [5]: 5.31 MEQ/L
- TOTAL BILIRUBIN [5]: 0.17 mg/dL
- URIC ACID [5]: 0.67 mg/dL
